Consider 10 compounds from PubChem BioAssay (NCI).

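Test compounds were applied to cells in 96-well plates for 48 hours at 5 doses. The concentration for full growth arrest is given as TGI.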

Among the test systems are A549 NSCLC; COLO 205 colon; DLD-1 colon; K-562 leukemia; KM12 colon; KM20L2 colon; LOX IMVI melanoma; LXFL 529 NSCLC; NCI-H522 lung; SNB-78 CNS; TK-10 renal; UO-31 renal.
What all share (experiment): NCI tumour cell line growth inhibition, 48 h

As for `CC1(c2ccc[n+](Cc3ccccc3)c2)OCCO1`, the TGI in the assay with A549 NSCLC, in the assay with COLO 205 colon, in the assay on DLD-1 colon, in the assay on K-562 leukemia, with KM12 colon and in the assay on KM20L2 colon was greater than 100 µM throughout. Moreover, the TGI in the assay on LOX IMVI melanoma, with LXFL 529 NSCLC, with NCI-H522 lung, with SNB-78 CNS, in the assay with TK-10 renal and in the assay on UO-31 renal was greater than 100 µM in each case.
In the case of `COC(=O)C(CSSC[C@H](N/C(C)=C/C(C)=O)C(=O)OC)N/C(C)=C/C(C)=O` (some centres undefined), the TGI in the assay on A549 NSCLC is greater than 100 µM; with COLO 205 colon, greater than 100 µM; with K-562 leukemia it was greater than 100 µM; in the assay with KM12 colon, greater than 100 µM; with LOX IMVI melanoma, 39.7 µM; in the assay on NCI-H522 lung, 30 µM. Besides, the values for the TGI with TK-10 renal and with UO-31 renal were 39.1 µM and greater than 100 µM, respectively.
As for `CCCC(=O)NC(Nc1ccc(S(=O)(=O)Nc2nc(C)cc(C)n2)cc1)(C(F)(F)F)C(F)(F)F`, the TGI in the assay on A549 NSCLC, in the assay with COLO 205 colon, with K-562 leukemia, in the assay on KM12 colon, with LOX IMVI melanoma and in the assay on NCI-H522 lung was greater than 100 µM throughout. The TGI in the assay on TK-10 renal and with UO-31 renal was greater than 100 µM each time.
Consider `CC(=O)c1c(C(F)(F)F)n([O-])c2cc(Cl)c(Cl)cc2[n+]1=O`, for which the TGI came out at 1.91 µM in the assay with A549 NSCLC; 2.11 µM in the assay with COLO 205 colon; 3.42 µM in the assay with K-562 leukemia; 0.403 µM in the assay with KM12 colon; 0.489 µM in the assay on LOX IMVI melanoma; 0.368 µM with NCI-H522 lung. Moreover, the values for the TGI in the assay on TK-10 renal and with UO-31 renal were 1.09 µM and 1.59 µM, respectively.
For `O=c1c2cc(I)ccc2nc(-c2cccs2)n1-c1ccc(O)cc1`, the TGI with A549 NSCLC was 27.4 µM; with COLO 205 colon, 36.1 µM; in the assay on K-562 leukemia it was greater than 100 µM; in the assay on KM12 colon, 25.1 µM; in the assay with LOX IMVI melanoma, 28.5 µM; in the assay on NCI-H522 lung it was 30.1 µM. Moreover, the figures for the TGI in the assay with TK-10 renal and in the assay with UO-31 renal were 23.3 µM and 25.4 µM, respectively.
For `COc1ccc(C(SC2C(O)C(CO)OC2n2ccc(N)nc2=O)(c2ccccc2)c2ccc(OC)cc2)cc1` (centres undefined), the TGI with A549 NSCLC amounted to 54.2 µM; in the assay on COLO 205 colon, 28.7 µM; in the assay with K-562 leukemia it was 88.3 µM; with KM12 colon, 71.2 µM; in the assay on LOX IMVI melanoma it was 33.1 µM; in the assay on NCI-H522 lung, 31.2 µM. Further, the TGI in the assay on TK-10 renal amounted to 66.2 µM; in the assay on UO-31 renal, 42.8 µM.
As for `COc1ccc(NC(C)=O)cc1N1C(=O)/C(=C\c2cc(OC)c(OC)c(OC)c2)SC1c1ccccc1` (centres undefined), the TGI with A549 NSCLC, in the assay with COLO 205 colon, in the assay on K-562 leukemia, in the assay with KM12 colon, in the assay on LOX IMVI melanoma and in the assay on NCI-H522 lung was greater than 100 µM in each case. For the same compound, the TGI with TK-10 renal and in the assay with UO-31 renal was greater than 100 µM each time.
Turning to `CCN(CC)c1ccc2cc(C(=O)Nc3cccc4ccccc34)c(=N)oc2c1`, the TGI in the assay on A549 NSCLC, in the assay with COLO 205 colon, with K-562 leukemia, in the assay with KM12 colon, in the assay with LOX IMVI melanoma and in the assay on NCI-H522 lung was greater than 100 µM in each case. The TGI with TK-10 renal and in the assay on UO-31 renal was greater than 100 µM each time.
Regarding `N#Cc1ccccc1-c1nc2c3c(c(N)ccc3n1)C(=O)c1ccccc1-2`, the TGI with A549 NSCLC, in the assay on COLO 205 colon, in the assay with K-562 leukemia, in the assay on KM12 colon, in the assay with LOX IMVI melanoma and in the assay with NCI-H522 lung was greater than 100 µM each time. Also, the TGI in the assay with TK-10 renal and in the assay on UO-31 renal was greater than 100 µM in each case.
In the case of `COc1cc(C2c3cc4c(cc3OC(NNC(N)=O)C2C)OCO4)cc(OC)c1O` (centres undefined), the TGI in the assay on A549 NSCLC is greater than 80.9 µM; in the assay on COLO 205 colon, 9.4 µM; in the assay on K-562 leukemia it was greater than 100 µM; with KM12 colon it was greater than 69.9 µM; in the assay on LOX IMVI melanoma, greater than 100 µM; with NCI-H522 lung, 10.5 µM. The TGI in the assay on TK-10 renal was greater than 73.8 µM; with UO-31 renal, greater than 100 µM.
